From publication PMC2696686 (Bioorganic & medicinal chemistry, 2009)

Key:
[1] = biological target: T1, hDAT (Homo sapiens, UniProt Q01959); assay: [3H]-WIN-35,428 binding inhibition in N2A neuroblastoma cells expressing hDAT
[2] = biological target: T2, rDAT (Rattus norvegicus, UniProt P23977); details: pattern previously seen; ref [7]; cited from earlier work
[3] = biological target: 6Xhis-hDAT (Homo sapiens, UniProt Q01959); details: 100 μM (−)-cocaine; HEK 293 cells expressing 6Xhis-hDAT
[4] = biological target: T2, rDAT; details: LLC-PK1 cells expressing rDAT
[5] = Storage stability of the radioligand by HPLC; type: physicochemical; details: 25 days at −20 °C in the dark; initial purity 99%
[6] = biological target: T1, hDAT; assay: [3H]-dopamine uptake inhibition in N2A neuroblastoma cells expressing hDAT; type: cell-based; details: uptake IC50 higher than binding Ki

T2 sequence (P23977 whole entry): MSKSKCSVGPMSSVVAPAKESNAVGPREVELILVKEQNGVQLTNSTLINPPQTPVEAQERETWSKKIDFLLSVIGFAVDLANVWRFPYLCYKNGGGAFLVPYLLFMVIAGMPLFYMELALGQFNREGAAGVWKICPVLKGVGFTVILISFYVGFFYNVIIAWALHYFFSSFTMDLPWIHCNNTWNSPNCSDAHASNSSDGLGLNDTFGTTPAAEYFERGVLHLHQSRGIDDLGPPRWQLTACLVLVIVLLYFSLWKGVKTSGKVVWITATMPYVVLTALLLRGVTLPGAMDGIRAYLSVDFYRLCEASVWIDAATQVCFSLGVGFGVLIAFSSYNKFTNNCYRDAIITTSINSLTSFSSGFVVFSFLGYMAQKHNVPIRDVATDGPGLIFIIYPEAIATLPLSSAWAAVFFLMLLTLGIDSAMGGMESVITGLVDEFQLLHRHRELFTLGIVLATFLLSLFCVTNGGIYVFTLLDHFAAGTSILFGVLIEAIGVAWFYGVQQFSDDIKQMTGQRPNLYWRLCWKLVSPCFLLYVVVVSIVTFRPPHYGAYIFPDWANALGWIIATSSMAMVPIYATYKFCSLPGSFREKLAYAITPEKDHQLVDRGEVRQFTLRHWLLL
T1 sequence (Q01959 whole entry): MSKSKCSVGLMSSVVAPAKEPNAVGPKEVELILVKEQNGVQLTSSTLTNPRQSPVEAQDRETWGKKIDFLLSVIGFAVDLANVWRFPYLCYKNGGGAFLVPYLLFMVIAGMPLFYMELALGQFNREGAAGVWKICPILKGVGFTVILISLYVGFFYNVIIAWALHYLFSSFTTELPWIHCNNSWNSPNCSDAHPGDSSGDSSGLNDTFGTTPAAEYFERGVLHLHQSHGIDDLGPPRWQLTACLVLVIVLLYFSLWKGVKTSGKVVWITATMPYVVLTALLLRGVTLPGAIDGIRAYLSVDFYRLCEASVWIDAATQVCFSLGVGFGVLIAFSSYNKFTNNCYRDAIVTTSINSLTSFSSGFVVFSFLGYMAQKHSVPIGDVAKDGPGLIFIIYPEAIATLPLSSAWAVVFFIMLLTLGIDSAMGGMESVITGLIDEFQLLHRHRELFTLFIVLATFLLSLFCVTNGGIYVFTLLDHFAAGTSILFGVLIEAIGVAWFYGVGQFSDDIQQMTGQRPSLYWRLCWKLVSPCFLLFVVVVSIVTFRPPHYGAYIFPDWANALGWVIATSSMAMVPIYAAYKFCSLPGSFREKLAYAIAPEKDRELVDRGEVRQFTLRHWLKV
Chain of 6Xhis-hDAT (Q01959 whole entry): as above

Structure (SMILES): CCCC(C(=O)c1ccc(N=[N+]=[N-])c(I)c1)N1CCCC1 (stereo not drawn) [Compound 6, 1-(4-Azido-3-iodophenyl)-2-pyrrolidin-1-yl-pentan-1-one]
- DAT affinity, fold higher than bupropion ([1]; ratio of Ki values versus bupropion): 6 fold
- DAT affinity, fold less than pyrovalerone ([1]; ratio of Ki values versus pyrovalerone): 10 fold

Structure (SMILES): CN1[C@@H]2CC[C@H]1C[C@@H](OC(c1ccccc1)c1ccccc1)C2 [benztropine]
- Binding versus uptake inhibition value (pattern) [2]: essentially the same value

Structure (SMILES): COC(=O)[C@H]1[C@@H](OC(=O)c2ccccc2)C[C@@H]2CC[C@H]1N2C [cocaine, reference compound]
- Effect on [125I]-6 photolabeling of DAT [3]: blocked
- Effect on [125I]-6 photolabeling of DAT ([4]; 100 μM (−)-cocaine): blocked

Structure (SMILES): C[C@@H]1CN(CCCn2c3ccccc3c3ccccc32)C[C@H](C)N1 [rimcazole]
- Binding versus uptake inhibition value (pattern) [2]: essentially the same value

Structure (SMILES): CCCC(C(=O)c1ccc(N=[N+]=[N-])c([125I])c1)N1CCCC1 (stereo not drawn) [[^125I]-6, [^125I]-1-(4-Azido-3-iodophenyl)-2-pyrrolidin-1-yl-pentan-1-one]
- Radiochemical purity after storage (stability) [5]: 92%
- Incorporation into DAT on photoactivation (labeled protein of ~80 kDa) ([4]; 30 nM radioligand, 1 h, 4°C, UV 254 nm, 45 s): incorporation

Structure (SMILES): CCCC(C(=O)c1ccc(N)cc1)N1CCCC1 (stereo not drawn) [Compound 8, 1-(4-Aminophenyl)-2-pyrrolidin-1-yl-pentan-1-one]
- Uptake inhibition IC50 relative to binding Ki [6]: essentially the same value
